Patent US20210179666A1, “CYCLIC PEPTIDES AND METHODS OF USE THEREOF” (Regents of the University of Minnesota, priority 2019, published 2021)
Several values for one entry are separate records, joined by “and”; a condition that tells them apart may be missing. Identical values can stand only once. Like-named read-outs stand apart in the source and are kept apart here. Values belong to the compound of their own block, whether it stands above or below them. Square brackets hold non-standard residues; d marks the D form. Peptide text beside a SMILES is read from it. Gly(N-(CH2)3-guanidino) = N=C(N)NCCCNCC(=O)O; Dap = NC[C@H](N)C(=O)O; Sar = CNCC(=O)O

Tests used:
mMC4R [1] = molecular target: T1, mMC4R (Mus musculus, UniProt P56450); assay: 125I-NDP-MSH competitive binding assay, transfected HEK293 cells, mMC4R; details: binding IC50 versus control 1 (Asn) or 2 (Dap)
hMC4R [2] = molecular target: T2, hMC4R (Homo sapiens, UniProt P32245); assay: cAMP AlphaScreen bioassay, HEK293 cells stably expressing hMC4R; type: cell-based; design: expressed in transfected cells; details: for hMC4R pA2: antagonist pA2, Schild analysis with agonist NDP-MSH, ± SEM, <5.0 = no antagonist potency up to 10,000 nM; for Observed Inverse Agonism?: hMC4R, cAMP
mMC4R [3] = molecular target: T1, mMC4R; details: Example 1; antagonist, Schild analysis with NDP-MSH; ± SEM; <5.0 = no antagonist potency up to 10,000 nM
hMC4R [4] = molecular target: T2, hMC4R; assay: 125I-NDP-MSH competitive binding assay, transfected HEK293 cells, hMC4R; details: binding IC50 versus control 1 (Asn) or 2 (Dap)
mMC1R [5] = molecular target: T3, mMC1R (Mus musculus, UniProt Q01727); assay: cAMP AlphaScreen bioassay, HEK293 cells stably expressing mMC1R; details: for EC50: read-out: mMC1R EC50, ± SEM, >100,000 = no agonist activity up to 100 μM; for mMC1R percent maximal stimulatory response: @ 100 μM, EC50 not determinable
mMC5R = mMC5R (Mus musculus, UniProt P41149); details: for mMC5R pA2: antagonist, Schild analysis with NDP-MSH, ± SEM
mMC3R [6] = molecular target: T4, mMC3R (Mus musculus, UniProt P33033); details: for mMC3R pA2: antagonist, Schild analysis with NDP-MSH, ± SEM
mMC1R [7] = molecular target: T3, mMC1R; assay: 125I-NDP-MSH competitive binding assay, transfected HEK293 cells, mMC1R; details: binding IC50 versus control 1 (Asn) or 2 (Dap)
mMC3R [8] = molecular target: T4, mMC3R; assay: 125I-NDP-MSH competitive binding assay, transfected HEK293 cells, mMC3R; details: binding IC50 versus control 1 (Asn) or 2 (Dap)

T3 sequence (Q01727 whole entry): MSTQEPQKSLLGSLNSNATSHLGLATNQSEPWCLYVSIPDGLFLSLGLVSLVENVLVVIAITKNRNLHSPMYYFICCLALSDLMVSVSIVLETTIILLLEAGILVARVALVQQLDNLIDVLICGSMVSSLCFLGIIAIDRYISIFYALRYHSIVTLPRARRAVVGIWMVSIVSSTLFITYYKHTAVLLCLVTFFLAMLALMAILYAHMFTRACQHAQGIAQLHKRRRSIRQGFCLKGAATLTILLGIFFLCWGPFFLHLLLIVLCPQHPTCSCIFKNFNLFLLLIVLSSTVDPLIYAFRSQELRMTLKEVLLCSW
mMC5R, sequence (P41149 whole entry): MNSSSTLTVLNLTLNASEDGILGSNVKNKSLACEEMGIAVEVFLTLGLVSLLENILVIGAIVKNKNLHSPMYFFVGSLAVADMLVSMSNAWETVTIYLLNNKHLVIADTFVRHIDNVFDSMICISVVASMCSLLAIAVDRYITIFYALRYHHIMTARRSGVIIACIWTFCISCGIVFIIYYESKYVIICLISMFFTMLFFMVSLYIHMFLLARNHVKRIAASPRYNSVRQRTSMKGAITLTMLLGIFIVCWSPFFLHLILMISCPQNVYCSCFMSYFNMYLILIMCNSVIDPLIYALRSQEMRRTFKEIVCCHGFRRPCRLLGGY
T2 sequence (P32245 whole entry): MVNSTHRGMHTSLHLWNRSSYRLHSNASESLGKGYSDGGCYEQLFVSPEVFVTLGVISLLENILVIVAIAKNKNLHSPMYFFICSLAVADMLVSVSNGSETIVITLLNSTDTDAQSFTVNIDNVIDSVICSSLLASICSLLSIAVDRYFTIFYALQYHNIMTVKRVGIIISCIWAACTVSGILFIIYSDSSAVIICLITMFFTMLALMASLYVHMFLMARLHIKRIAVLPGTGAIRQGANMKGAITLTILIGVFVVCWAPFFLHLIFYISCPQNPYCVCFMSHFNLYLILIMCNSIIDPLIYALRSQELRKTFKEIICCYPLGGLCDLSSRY
T1 sequence (P56450 whole entry): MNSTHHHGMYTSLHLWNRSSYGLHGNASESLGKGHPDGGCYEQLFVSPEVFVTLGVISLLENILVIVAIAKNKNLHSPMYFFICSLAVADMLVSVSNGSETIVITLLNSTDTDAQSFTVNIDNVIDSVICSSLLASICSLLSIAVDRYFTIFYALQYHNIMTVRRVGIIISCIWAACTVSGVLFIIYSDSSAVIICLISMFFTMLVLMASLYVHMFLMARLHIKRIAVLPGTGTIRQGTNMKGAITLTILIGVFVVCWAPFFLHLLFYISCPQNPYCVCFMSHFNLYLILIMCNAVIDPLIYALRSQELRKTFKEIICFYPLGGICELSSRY
T4 sequence (P33033 whole entry): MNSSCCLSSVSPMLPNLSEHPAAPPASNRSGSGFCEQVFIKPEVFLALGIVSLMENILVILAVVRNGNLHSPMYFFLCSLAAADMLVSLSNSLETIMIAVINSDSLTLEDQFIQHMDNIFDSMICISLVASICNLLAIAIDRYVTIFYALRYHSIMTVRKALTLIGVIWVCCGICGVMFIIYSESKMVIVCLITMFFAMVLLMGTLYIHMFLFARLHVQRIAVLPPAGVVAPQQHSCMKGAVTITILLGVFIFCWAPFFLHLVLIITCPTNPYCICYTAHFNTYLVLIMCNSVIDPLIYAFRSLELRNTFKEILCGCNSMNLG

SMILES: C[C@@H]1NC(=O)[C@H](CC(N)=O)NC(=O)[C@H](Cc2ccccc2)NC(=O)[C@H](Cc2ccccc2)NC(=O)[C@H](Cc2c[nH]cn2)NC(=O)[C@@H]2CCCN2C(=O)[C@H]2CCCN2C(=O)[C@H](Cc2ccccc2)NC1=O [ZMK 2-96, c[Pro-His-Phe-Phe-Asn-Ala-Phe-DPro]] (cyclo(PHFFNAF[dP]))
mMC4R Fold Diff (mMC4R [1]): 300 | hMC4R pA2 (hMC4R [2]): 5.8 and 5.8 ± 0.2 | Observed Inverse Agonism? (hMC4R [2]): Yes | mMC4R pA2 (mMC4R [3]): 5.3 and 5.3 ± 0.1 | hMC4R Fold Diff (hMC4R [4]): 300

SMILES: C[C@@H]1NC(=O)[C@H](CC(N)=O)NC(=O)[C@H](Cc2ccccc2)NC(=O)[C@H](Cc2ccccc2)NC(=O)CN(CCCNC(=N)N)C(=O)[C@@H]2CCCN2C(=O)[C@H]2CCCN2C(=O)[C@H](Cc2ccccc2)NC1=O [MDE7-26-1c, c[Pro-NArg-Phe-Phe-Asn-Ala-Phe-DPro]] (cyclo(P[Gly(N-(CH2)3-guanidino)]FFNAF[dP]))
mMC1R pharmacology observed (Partial Agonist) (mMC1R [5]; Example 2): Partial | mMC1R partial agonist, percentage of activation relative to NDP-MSH (mMC1R [5]; Example 2, maximal signal): 50% NDP-MSH

SMILES: CC(C)[C@@H]1NC(=O)[C@H](CN)NC(=O)[C@H](Cc2ccccc2)NC(=O)[C@H](Cc2ccccc2)NC(=O)[C@H](CCCNC(=N)N)NC(=O)[C@@H]2CCCN2C(=O)[C@H]2CCCN2C(=O)[C@H](Cc2ccccc2)NC1=O [ZMK 2-85, c[Pro-Arg-Phe-Phe-Dap-Val-Phe-DPro]]
hMC4R pA2 (hMC4R [2]): 7.6 and 7.6 ± 0.06 | Observed Inverse Agonism? (hMC4R [2]): Yes | mMC4R pA2 (mMC4R [3]): 7.5 | mMC5R pA2 (mMC5R; Example 1, reported herein for the first time): 6.3 and 6.3 ± 0.03 | mMC3R pA2 (mMC3R [6]; Example 1, <5.0 = no antagonist potency up to 10,000 nM): 6.1 and 6.1 ± 0.03

SMILES: C[C@@H]1NC(=O)[C@H](CC(N)=O)NC(=O)CN(Cc2ccccc2)C(=O)[C@H](Cc2ccccc2)NC(=O)[C@H](CCCNC(=N)N)NC(=O)[C@@H]2CCCN2C(=O)[C@H]2CCCN2C(=O)[C@H](Cc2ccccc2)NC1=O [MDE9-88c, c[Pro-Arg-Phe-NPhe-Asn-Ala-Phe-DPro]]
mMC1R pharmacology observed (Partial Agonist) (mMC1R [5]; Example 2): Partial | mMC5R pharmacology observed (Partial Agonist / Inverse Agonist) (mMC5R; Example 2): Inverse | mMC5R pA2 (mMC5R; Example 2): 6.1 and 6.1 ± 0.1 | mMC5R inverse agonist, percent decrease from basal (mMC5R; Example 2, basal to plateau signal, sigmoidal dose-response): −10% | mMC3R pA2 (mMC3R [6]; Example 2, <5.5 = no antagonist potency up to 10,000 nM): 6.0 ± 0.1

EC50 (mMC1R [5]; Example 2 (Table 7, first EC50 column)): 1000 nM
SMILES: CN1CC(=O)N[C@@H](Cc2ccccc2)C(=O)N2CCC[C@@H]2C(=O)N2CCC[C@H]2C(=O)N[C@@H](CCCNC(=N)N)C(=O)N[C@@H](Cc2ccccc2)C(=O)N[C@@H](Cc2ccccc2)C(=O)N[C@@H](CC(N)=O)C1=O [MDE7-26-4c, c[Pro-Arg-Phe-Phe-Asn-NAla-Phe-DPro]] (cyclo(PRFFN[Sar]F[dP]))

SMILES: C[C@@H]1NC(=O)[C@H](CN)NC(=O)[C@H](Cc2ccccc2)NC(=O)[C@H](Cc2ccccc2)NC(=O)[C@H](CS)NC(=O)[C@@H]2CCCN2C(=O)[C@H]2CCCN2C(=O)[C@H](Cc2ccccc2)NC1=O [ZMK 3-20, c[Pro-Cys-Phe-Phe-Dap-Ala-Phe-DPro]] (cyclo(PCFF[Dap]AF[dP]))
mMC1R Fold Diff (mMC1R [7]): 6 | mMC4R Fold Diff (mMC4R [1]): 5200 | Observed Inverse Agonism? (hMC4R [2]): No | hMC4R agonist stimulation (hMC4R [2]; up to 100 μM concentrations): unable to stimulate | mMC1R stimulation of the receptor, % of the NDP-MSH control (mMC1R [5]; full agonist, maximal stimulation): 98% | EC50 (mMC1R [5]; Example 1, agonist): 4000 nM | mMC3R Fold Diff (mMC3R [8]): 15 | hMC4R Fold Diff (hMC4R [4]): 2100

SMILES: C[C@@H]1NC(=O)CN(CCN)C(=O)[C@H](Cc2ccccc2)NC(=O)[C@H](Cc2ccccc2)NC(=O)[C@H](CCCNC(=N)N)NC(=O)[C@@H]2CCCN2C(=O)[C@H]2CCCN2C(=O)[C@H](Cc2ccccc2)NC1=O [MDE9-111c, c[Pro-Arg-Phe-Phe-NDab-Ala-Phe-DPro]]
mMC1R percent maximal stimulatory response (mMC1R [5]; Example 2): 60% @ | mMC5R inverse agonist, percent decrease from basal (mMC5R): −10%

mMC1R percent maximal stimulatory response (mMC1R [5]; Example 2): 85% @ | mMC3R percent maximal stimulatory response (mMC3R [6]; Example 2, @ 100 μM): 60% @
SMILES: C[C@@H]1NC(=O)[C@H](CC(N)=O)NC(=O)[C@H](Cc2ccccc2)NC(=O)[C@H](Cc2ccccc2)NC(=O)[C@H](CCCNC(=N)N)NC(=O)[C@@H]2CCCN2C(=O)[C@H]2CCCN2C(=O)CN(Cc2ccccc2)C1=O [MDE7-26-5c, c[Pro-Arg-Phe-Phe-Asn-Ala-NPhe-DPro]]
